Melting point data for 86 compounds are collected here from a melting point compilation (Tetko et al.; mined from patent text by program, amines drawn as free bases though some values may be those of a salt).

SMILES strings stand for the structures. A value given as a limit tells only on which side of the number the result lay.

What is called melting point is the temperature of the solid-liquid transition. The compound `Cc1sc2cc(C3=NCC4(CCNCC4)S3)[nH]c2c1N(C)S(=O)(=O)c1cccs1` displayed a melting point of 196 °C. The figure for `CCO[PH](=O)CN(C)c1cc(Oc2ccc(C(F)(F)F)cc2Cl)ccc1[N+](=O)[O-]` (stereo unspecified) is 118 to 120 °C. In turn, `C=C(c1ccc(I)cc1)C(O)(Cn1cncn1)c1ccccc1Cl` (stereo unspecified) came in with a melting point of 128 to 130 °C. `COc1ccc(-c2nc(C)c([N+](=O)[O-])[nH]2)cc1` came in with a melting point of 198 to 204 °C.

`Clc1ccc(N2CCN(Cc3c[nH]c4ncccc34)CC2)nc1`: the melting point fell in the range of 196 to 198 °C. As to `CCOC(=O)c1ccc(NCCOc2ccccc2)cc1`, the melting point was 126 to 129 °C. `CCOC(=O)Cn1c(=O)c(C#N)c(N2CCN(C(=O)c3cccs3)CC2)c2cccnc21`: the melting point was determined as 236 °C. Compound `COc1ccc(C(C#Cc2ccccc2)CC(=O)O)cc1OC1CCCC1` (racemic) had a melting point of 86 to 88 °C. The compound `O=c1oc2ccccc2c2c1-c1ccccc1OC2` yielded a melting point of 202 °C. `O=C(NCc1ncc(C(F)(F)F)cc1Cl)c1ccccc1C(F)(F)F` yielded a melting point of 127 to 130 °C. As to `CC1CC2=CC(=O)CCC2C2CCC3(C)C(C=O)CCC3C12` (stereo unspecified), the melting point lay in the range of 207 to 230 °C. In turn, `CCCC[C@H](NC(=O)[C@H](CC(C)C)NC(=O)c1c(F)cccc1C(F)(F)F)C(=O)CSCc1ccco1` showed a melting point of 106 to 107 °C. Compound `CCOC1(OCC)C[C@@H](C(=O)O)[C@@H]1C(=O)O` (relative stereo) registered a melting point of 118 to 120 °C. The compound `O=C(CCC1CCN(Cc2cccc(F)c2)CC1)c1cc2c3c(c1)CCN3C(=O)CC2` showed a melting point of 111 to 112 °C. The figure for `CCOC(=O)C(=O)Nc1ccc(Cl)c(C#N)c1` is 182 to 183 °C; for `CN=C(N)Nc1nc(CCCCNC(=NC#N)NC)cs1` it is 119 to 122 °C. On to `O=C(O)c1ccc(/C=C/c2cnc3ccccc3c2)cc1`, for which the melting point is 287 to 290 °C. `CS(=O)(=O)c1cc(F)cc(Cc2cc3cccc(-c4cccc(C(=O)NCC(N)=O)c4)c3s2)c1`: the melting point lay within 160 to 161 °C. Turning to `CN1CCN(c2cc(Br)cc3c2c(=O)n(Cc2ccccc2Cl)c(=O)n3Cc2ccccc2)CC1`, the melting point was in the range of 104 to 108 °C. The figure for `CCOC(=O)Cn1c(=S)n(Cc2ccc(Cl)c(Cl)c2)c(=S)c2ccccc21` is 155 to 156 °C; for `CC1COc2cc(-c3ccco3)ccc2C1=NO` (stereo unspecified) it is 175 to 177 °C; for `O=CCC1Cc2ccc(Br)cc2C1=O` (racemic) it is 84 °C. The figure for `CC[C@H](COC)n1cc(Cl)nc(N2CCc3cc(OC)cc(Br)c32)c1=O` is 100 to 102 °C; for `FC(F)(F)CN1CCN=C(c2ccccc2)c2cc(Cl)ccc21` it is 164 to 165 °C; for `CNC(=O)Cc1c(-c2cc(C)sc2C)nc2sc3ccccc3n12` it is 238 to 239 °C.

Take `O=C(Cn1c(-c2ccc(C(F)(F)F)cc2)nc2cccnc21)NCc1ccccc1`: the melting point is 224 to 225 °C.

`COC1=C(OC)C(=Nc2ccccc2)NC1=O` registered a melting point of 141 to 143 °C. In the case of `CN(C)Cc1ccc(OCC(=O)N2CCN(c3ccc(N4C[C@H](CNC(=S)C5CC5)OC4=O)cc3F)CC2)cc1`, the melting point fell in the range of 169 to 170 °C. `COc1ccc(N=C(NC(=S)NCCO)c2ccccc2)cc1` came in with a melting point of 141 to 142 °C.

`C=CCON=C(C(=O)O)C1=CSCCO1` had a melting point of 119 to 121 °C. `CC1(C)CC(NC(=O)Nc2ccccc2)c2cc(C#N)ccc2O1` (stereo unspecified) showed a melting point of 214 to 215 °C. The figure for `CCOC(=O)C1=C(C)N2CCNC2=C(C(=O)OCC)C1c1cccs1` (stereo unspecified) is 134 °C; for `COc1cc(OC)cc(N2CCN(C(=O)N(C)c3cc(C)c(C)cc3OC)CC2)c1` it is 86 to 88 °C.

In turn, `COc1ccc(O[C@@H]2COc3ccc(-c4ccc5cc(F)ccc5n4)cc3[C@@H]2O)cc1` (relative stereo) came in with a melting point of 151 to 154 °C. As for `O=C1[C@@H](N2C(=O)c3ccccc3C2=O)[C@@H](CCl)N1Cc1ccccc1` (relative stereo), the melting point came to 149 °C. `CCC12CCC3C4CCC(=O)C=C4CCC3C1CCC2OC(=O)CCc1ccccc1` (stereo unspecified) yielded a melting point of 135 to 140 °C.

Regarding `CC(=O)Oc1nc(-c2ccc(C)cc2)sc1-c1ccccc1`, the melting point was in the range of 122 to 125 °C. In the case of `O=[N+]([O-])c1ccc2c(c1)NCc1ccccc1O2`, the melting point lay within 154 to 156 °C. With `N#CCc1c(Cl)nc(-c2ccc([N+](=O)[O-])cc2)n1Cc1ccccc1`, the melting point was in the range of 125 to 128 °C.

`CCS(=O)(=O)Nc1cc(N=c2sc(=S)n3n2CCCC3)c(F)cc1Cl` showed a melting point of 146 to 148 °C. Regarding `O=C(Nc1ccc(Oc2ccccc2)cc1)N1CCN(c2ncnc3cc([N+](=O)[O-])ccc23)CC1`, the melting point lay in the range of 146 to 148 °C.

Turning to `CSc1nc(C)cc2nccn12`, the melting point fell in the range of 67 to 69 °C. In turn, `CCN(CC)CC1CCCCN1CCNC(=O)N1c2ccccc2NC(=O)c2ccccc21` (stereo unspecified) showed a melting point of 123 to 125 °C. As to `CCS(=O)CC(=O)Nc1c(C)cccc1C` (stereo unspecified), the melting point lay within 114 to 115 °C.

`Nc1ccccc1N1CCN(CC(O)COc2cccc3c2CCCC3)CC1` (stereo unspecified) gave a melting point of 103 to 104 °C. Compound `CCC(=O)c1ccc2c(c1)C(C(=O)Nc1cccc(C(=O)Nc3ccccc3)c1)C(=O)N2CC` (stereo unspecified) came in with a melting point of 179 to 180 °C. The figure for `CC(C)(c1ccccc1)c1ccc2nc(-c3ccc(C(F)(F)F)cc3)oc(=O)c2c1` is 104 to 105 °C; for `CCC(Cc1ccc(OC)c(OCCc2ccccc2)c1)NC(=O)OC(C)(C)C` (stereo unspecified) it is 88.5 to 89.5 °C; for `CC(=O)N(C(C)=O)c1cc2c(cc1C)N(C(C)=O)c1ccc(N(C)C)cc1N2C(C)=O` it is 231 to 234 °C. `CCOC(=O)c1ccc(C(=O)OCC)c2cc3ccccc3cc12` displayed a melting point of 99 to 100 °C. Turning to `NC(=O)/C=C1/c2cc(F)cc(F)c2CC1O` (stereo unspecified), the melting point lay within 235 to 237 °C.

Turning to `CC(=O)NCCCCCC(=O)NC[C@@H]1CN2C(=O)C[C@H]2O1` (racemic), the melting point was in the range of 117 to 118 °C. Compound `O=C(O)C1(c2cccc(C(F)(F)F)c2)CCN(Cc2ccccc2)CC1` had a melting point of 243 °C. `C#CCc1c(C)nc2c(OCc3ccccc3C)cccn12` displayed a melting point of 138 to 140 °C. `CCc1cc(C(=O)c2ccccc2Cl)c(-n2c(CNC(=O)c3ccc(Cl)c(Cl)c3)nnc2C2CCCCC2)s1` yielded a melting point of 206 to 208 °C. As for `CC(C)(OC(=O)NC(Cc1c[nH]c2ccccc12)C(=O)NC(Cc1ccccc1)C(N)=O)C(Cl)(Cl)Cl` (stereo unspecified), the melting point is 187 °C. In turn, `CC(=O)c1cn(C(=O)OC(C)(C)C)c2ccc(OCc3ccccc3)cc12` registered a melting point of 114 to 116 °C.

The compound `CC1CC(C)N(CCCNC(=O)CN2CCCC2=O)C(C)(C)C1` (stereo unspecified) yielded a melting point of 85 to 87 °C. `CC1CCN(c2ccc([N+](=O)[O-])cc2C(=O)c2ccc(Cl)c(Cl)c2)CC1` registered a melting point of 116 °C. `O=C(O)c1cccc(-n2c(=O)c3c(Cc4ccccc4)n[nH]c3c3cccnc32)c1` yielded a melting point of 300 to 305 °C.

`Clc1cc2c(s1)-n1c(nnc1CN1CCOCC1)CN=C2c1ccccc1Cl` registered a melting point of 224 to 226 °C. `CCN(CC)c1nc(Cl)nc2ccccc12` returned a melting point of 68 to 70 °C. As to `CSc1ccccc1C=NO`, the melting point lay within 88 to 89 °C. `CC(C)Oc1n[nH]c(=O)n1C` had a melting point of 142 °C. Compound `Cn1cc(S(C)=O)c(=O)c2ccc(Br)cc21` (stereo unspecified) showed a melting point of 248 to 249 °C.

`ON=C1C2CCN(CC2)C1CN1CCCC1` (stereo unspecified) yielded a melting point of 194 to 195 °C.

`Oc1ccc2c(-c3cccc4ccc(O)cc34)noc2c1` showed a melting point of 262 to 264 °C. `CC1(C)Oc2cc([N+](=O)[O-])c(NC(=O)Cc3ccc(-c4ccccc4)cc3)cc2C2OC21` (stereo unspecified) yielded a melting point of 171 to 174 °C. `CSc1nn2c(N)cc(C)nc2c1S(=O)(=O)c1ccc2ccccc2c1`: the melting point is over 230 °C. The figure for `CC1CCC2(CC1)OCCN2C(=O)C(Cl)Cl` (stereo unspecified) is 119 to 120 °C; for `N#CCCNC(=O)c1cccc(-c2ccc3ccn(-c4ccc(Cl)cc4Cl)c3n2)c1` it is 215 to 216 °C; for `COc1ccc(S(=O)(=O)C2(C(=O)NO)CCN(Cc3ccc(F)cc3)CC2)cc1` it is 176 to 178 °C. Compound `CS(=O)(=O)c1ccc(-c2cnn(CC(F)(F)F)c(=O)c2NC2CCC2)cc1` came in with a melting point of 169 to 172 °C. In turn, `CC(C)Cc1ccc(CCc2cc3c(s2)NC(=O)C(c2ccccc2)N=C3c2ccccc2Cl)cc1` (stereo unspecified) came in with a melting point of 201 to 203 °C. The compound `CCc1nnc(-c2ccc(O)cc2)n1-c1ccc(O)cc1` displayed a melting point of 317 to 318 °C.

On to `COC(=O)c1ccc(COC(=O)Nc2ccc(-c3ccccc3)n(CC(=O)NC(Cc3ccccc3)C(=O)C(F)(F)F)c2=O)cc1` (stereo unspecified), for which the melting point lay within 186 to 189 °C.

`NC(=O)Cc1ccc2c(c1)CCc1cccnc1S2` showed a melting point of 165 to 166 °C. Turning to `CCC(=O)CCSc1cc(C(C)(C)C)c(O)c(C(C)(C)C)c1`, the melting point was in the range of 76 to 79 °C. Turning to `CCC(CC)n1cc(C)nc(N2CCc3cc(OC)cc(C)c32)c1=O`, the melting point was in the range of 138 to 140 °C.

For `COc1ccc2cccc3c2c1C(=O)C3=O`, the melting point was in the range of 218 to 220 °C. Compound `CC(C)c1nc(CN(C)C(=O)N[C@H](C(=O)N[C@@H](Cc2ccccc2)C[C@H](O)[C@H](Cc2ccccc2)NC(=O)OCc2cnco2)C(C)C)cs1` yielded a melting point of 59 to 61 °C.

As for `O=C(Nc1ccc(OC(F)(F)F)cc1)N[C@H]1CC[C@@H](Oc2ccc(C(=O)O)cc2)CC1`, the melting point fell in the range of 210 to 212 °C. Turning to `CC(C)(C)OC(=O)C(Nc1ccccc1)c1ccc(Cl)c(Cl)c1` (racemic), the melting point was found to be 94 °C. The compound `CCc1nc(NC(C)=O)nc(NC(C)c2cccs2)n1` (stereo unspecified) registered a melting point of 153 °C. The compound `CC1(C)C2CC[C@]1(C)C(=O)C(C(=O)Nc1ccc([N+](=O)[O-])cc1)C2=O` (stereo partly specified) yielded a melting point of 168 to 170 °C. In the case of `Cc1ccc(S(=O)(=O)OC[C@H]2CCC[C@H](OCc3c(Cl)cccc3Cl)O2)cc1` (relative stereo), the melting point was in the range of 123 to 124 °C.
